The NIST ThermoML archive (doi:10.1016/j.fluid.2014.07.004)
Numbers after ± are expanded uncertainties.

Columns and labels:
[1] = 298.15 K; 101.33 kPa; Liquid; Vibrating tube method
[2] = xn = mol fraction of the nth substance listed; conditions: 298.15 K, 101 kPa, Liquid, Vibrating tube method
[3] = refractive index (Na D-line) (dimensionless); xn = mol fraction of the nth substance listed; conditions: 298.15 K, 101 kPa, Liquid, Standard Abbe refractometry

COc1ccccc1 [anisole]
Conditions	mass density [kg/m3]
[1]	989.42 ± 0.05

COc1ccccc1 [anisole] + CO
Conditions	mass density, [2] [kg/m3]	refractive index, [3]
x2 = 0.0498	985.45 ± 0.05	1.5105 ± 0.0004
x2 = 0.1003	981.36 ± 0.05	1.5064 ± 0.0004
x2 = 0.2003	972.63 ± 0.05	1.4974 ± 0.0004
x2 = 0.3001	962.6 ± 0.06	1.4865 ± 0.0004
x2 = 0.4002	950.84 ± 0.08	1.4749 ± 0.0004
x2 = 0.4997	936.67 ± 0.1	1.4609 ± 0.0004
x2 = 0.5999	919.46 ± 0.1	1.445 ± 0.0004
x2 = 0.7001	898.19 ± 0.1	1.4238 ± 0.0004
x2 = 0.8	871.05 ± 0.11	1.398 ± 0.0003
x2 = 0.8999	835.51 ± 0.11	1.3658 ± 0.0003
x2 = 0.95	813.27 ± 0.11	1.3488 ± 0.0003

COc1ccccc1 [anisole] + COC(=O)OC
Conditions	mass density, [2] [kg/m3]	refractive index, [3]
x1 = 0.0502	1058.1 ± 0.06	1.3759 ± 0.0003
x1 = 0.0997	1053.35 ± 0.06	1.3847 ± 0.0003
x1 = 0.1995	1044.2 ± 0.06	1.402 ± 0.0004
x1 = 0.2996	1035.64 ± 0.06	1.4178 ± 0.0004
x1 = 0.3999	1027.62 ± 0.06	1.4334 ± 0.0004
x1 = 0.4998	1020.13 ± 0.06	1.4485 ± 0.0004
x1 = 0.5999	1013.15 ± 0.05	1.4629 ± 0.0004
x1 = 0.6999	1006.64 ± 0.05	1.4766 ± 0.0004
x1 = 0.8	1000.51 ± 0.05	1.4898 ± 0.0004
x1 = 0.9003	994.65 ± 0.05	1.5027 ± 0.0004
x1 = 0.9503	991.82 ± 0.05	1.5087 ± 0.0004

COC(=O)OC [dimethyl carbonate]
Conditions	mass density [kg/m3]
[1]	1063.26 ± 0.06

COC(=O)OC [dimethyl carbonate] + CO
Conditions	mass density, [2] [kg/m3]	refractive index, [3]
x2 = 0.0496	1056.77 ± 0.06	1.3658 ± 0.0003
x2 = 0.1	1049.84 ± 0.06	1.365 ± 0.0003
x2 = 0.1997	1034.4 ± 0.06	1.3627 ± 0.0003
x2 = 0.3	1016.89 ± 0.07	1.3607 ± 0.0003
x2 = 0.3999	997.15 ± 0.1	1.3578 ± 0.0003
x2 = 0.5	974.61 ± 0.13	1.3543 ± 0.0003
x2 = 0.5999	948.66 ± 0.13	1.3506 ± 0.0003
x2 = 0.6999	918.36 ± 0.12	1.3463 ± 0.0003
x2 = 0.7999	882.55 ± 0.11	1.341 ± 0.0003
x2 = 0.9	839.54 ± 0.11	1.3346 ± 0.0003
x2 = 0.9499	814.64 ± 0.11	1.331 ± 0.0003

CO [methanol]
Conditions	mass density [kg/m3]
[1]	786.59 ± 0.12

Oc1ccccc1 [phenol]
Conditions	mass density [kg/m3]
[1]	1058.51 ± 0.06
